{"source": "patent US8969332B2", "about": "“Aryloxy dihalopropenyl ether compounds and uses thereof” (Sinochem Corporation, priority 2011, dated 2015)", "system": "beet armyworm", "assay": "Insecticidal activity against beet armyworm (24 well-plate artificial diet emulsion method)", "type": "in vivo", "details": "Spodoptera exigua, 72 h, read-out: Mortality of beet armyworm (%)", "description": "Compounds were dissolved in mixed solvent (acetone:methanol=1:1), and diluted to required concentration with water containing 0.1% of tweed 80.\n24 well-plate artificial diet emulsion method: artificial food was added to each well of the 24 well-plate, after the artificial food was cooled, the prepared solution were added into the 24 well-plate according to the experimental design by order of chemical concentrations from low to high, by gently shaking the even emulsion film can be formed on the surface of the diet. 24 neat and healthy larvae were put into the 24 well-plate (one larvae each well) after the film was air-dried and 3 replicates were set for each treatment. Then the insects were maintained in observation room (25° C., 60˜70% R.H.). Scores were conducted and mortalities were calculated after 72 h."}
{"smiles": "FC(F)(F)c1ccc(Oc2ccc(OCCCOc3c(Cl)cc(OCC=C(Cl)Cl)cc3Cl)cc2)nc1", "note": "[Compound 1]", "values": [{"measurement": "mortality at 2.5 µg/mL", "setting": "2.5 mg/L", "result": 47.8, "unit": "%"}, {"measurement": "mortality at 10 µg/mL", "setting": "10 mg/L", "result": 100, "unit": "%"}]}
